“And” between values parts separate entries of the source, which are not always exact repeats. Equal values may be shown once. Read-outs that look alike come from different tables or passages of the source.
What was measured:
[1] = tested on: THP-1 Lucia ISG cells (interferon pathway); experiment: Potency test of purified dimers on THP-1 Lucia ISG reporter cells; assay type: cell-based, human; conditions: for Raw readings: replicates 1-3, duplicate wells
MC38 tumours = conditions: for Tumor Size: individual mice, * = excluded once a death was recorded in the group
Hs578T xenografts = experiment: Hs578T zebrafish xenograft model; conditions: for 2dpi phagocytosis: individual larvae; for M1 (M1/M2) / M2 (M1/M2) / Caspase-3 / TAM / Tumor Size: replicate values
[2] = parameters: method as in PMID 32820094; conditions: cited from earlier work

COc1cc2cc(C(=O)CCC(=O)O)sc2cc1OC [MSA2]
fold induction at 0.244141 µM ([1]; Homo sapiens, THP1-Lucia ISG, 24 h, Concentration 0.244141 μM, three replicates, read-out: Processed reporter response per replicate (reading relative to DMSO)): 1.21
fold induction at 0.976563 µM ([1]; Homo sapiens, THP1-Lucia ISG, 24 h, Concentration 0.976563 μM, three replicates, read-out: Processed reporter response per replicate (reading relative to DMSO)): 1.26
fold induction at 1.95312 µM ([1]; Homo sapiens, THP1-Lucia ISG, 24 h, Concentration 1.95312 μM, three replicates, read-out: Processed reporter response per replicate (reading relative to DMSO)): 0.95
fold induction at 3.90625 µM ([1]; Homo sapiens, THP1-Lucia ISG, 24 h, Concentration 3.90625 μM, three replicates, read-out: Processed reporter response per replicate (reading relative to DMSO)): 1.7
fold induction at 15.625 µM ([1]; Homo sapiens, THP1-Lucia ISG, 24 h, Concentration 15.625 μM, three replicates, read-out: Processed reporter response per replicate (reading relative to DMSO)): 316
fold induction at 31.25 µM ([1]; Homo sapiens, THP1-Lucia ISG, 24 h, Concentration 31.25 μM, three replicates, read-out: Processed reporter response per replicate (reading relative to DMSO)): 499
fold induction at 62.5 µM ([1]; Homo sapiens, THP1-Lucia ISG, 24 h, Concentration 62.5 μM, three replicates, read-out: Processed reporter response per replicate (reading relative to DMSO)): 530
fold induction at 125 µM ([1]; Homo sapiens, THP1-Lucia ISG, 24 h, Concentration 125 μM, three replicates, read-out: Processed reporter response per replicate (reading relative to DMSO)): 553
EC50 ([1]; Homo sapiens, THP1-Lucia ISG, 24 h, three biological replicates, read-out: EC50, THP-1 Lucia interferon reporter): 15 µM
Raw readings ([1]; MSA2 0.244141 uM): 644 RLU and 918 RLU and 1550 RLU and 217 RLU and 421 RLU
Raw readings ([1]; MSA2 0.488281 uM): 365 RLU and 407 RLU and 1564 RLU and 1732 RLU and 767 RLU and 301 RLU
Raw readings ([1]; MSA2 0.976563 uM): 533 RLU and 812 RLU and 1033 RLU and 1215 RLU and 1749 RLU and 577 RLU
Raw readings ([1]; MSA2 1.95312 uM): 558 RLU and 456 RLU and 1596 RLU and 1428 RLU and 16030 RLU and 391 RLU
Raw readings ([1]; MSA2 3.90625 uM): 737 RLU and 1083 RLU and 2552 RLU and 2286 RLU and 91800 RLU and 972 RLU
Raw readings ([1]; MSA2 7.8125 uM): 10329 RLU and 8090 RLU and 44667 RLU and 40124 RLU and 159658 RLU and 39192 RLU
Raw readings ([1]; MSA2 15.625 uM): 182029 RLU and 155323 RLU and 290195 RLU and 281155 RLU and 218467 RLU and 180884 RLU
Raw readings ([1]; MSA2 31.25 uM): 283415 RLU and 249220 RLU and 393493 RLU and 394488 RLU and 219551 RLU and 327473 RLU
Raw readings ([1]; MSA2 62.5 uM): 293238 RLU and 272508 RLU and 497557 RLU and 499850 RLU and 276937 RLU and 389453 RLU
Raw readings ([1]; MSA2 125 uM): 315598 RLU and 275220 RLU and 511799 RLU and 524474 RLU and 276606 RLU and 386234 RLU
Tumor Size (MC38 tumours; day 39): 279.4986* mm^3
Tumor Size (MC38 tumours; day 53): 0* mm^3
Survival: Days (MC38 tumours; mouse, in vivo): 60 days and 49 days and 35 days
2dpi phagocytosis (Hs578T xenografts; experiment 230522): 35 and 14 and 22 and 25 and 15
2dpi phagocytosis (Hs578T xenografts; experiment 230726): 13 and 22 and 48 and 31 and 19 and 33 and 17
M1 (M1/M2) (Hs578T xenografts; 2dpi): 60 and 67.5676 and 80 and 70.8333 and 69.7674 and 76.1905 and 64.1026 and 75 and 95.082 and 71.7949 and 80.6452 and 74.4681 and 72.4638 and 63.6364
M2 (M1/M2) (Hs578T xenografts; 2dpi): 40 and 32.4324 and 20 and 29.1667 and 30.2326 and 23.8095 and 35.8974 and 25 and 4.918 and 28.2051 and 19.3548 and 25.5319 and 27.5362 and 36.3636
apoptosis (activated Caspase 3) in xenografts (Hs578T xenografts; 4 dpi, MSA2 15 μM, SC2S 0.62 μM, β-GlcA-N1/E4 20 μM each): significantly induced apoptosis
M1 (M1/M2) (Hs578T xenografts; 4dpi): 35.7143 and 18.1818 and 40 (2×) and 21.0526 and 50 (3×) and 20 and 60 (2×) and 61.1111 and 28.125 and 25
M2 (M1/M2) (Hs578T xenografts; 4dpi): 64.2857 and 81.8182 and 60 (2×) and 78.9474 and 50 (3×) and 80 and 40 (2×) and 38.8889 and 71.875 and 75
Caspase-3 (Hs578T xenografts; experiment 230522): 1.291 and 1.3466 and 1.247 and 1.364 and 1.32 and 1.585 and 1.384 and 1.691 and 1.403 and 2.142 and 1.383
TAM (Hs578T xenografts; experiment 230522): 1.785 and 1.828 and 1.882 and 4.773 and 1.144 and 1.242 and 2.18 and 1.55 and 1.171
Tumor Size (Hs578T xenografts; experiment 230522): 0.8654 and 0.6638 and 0.8064 and 0.8329 and 0.9735 and 0.8457 and 0.6726 and 0.8811 and 0.8231 and 0.9824 and 0.6461
Caspase-3 (Hs578T xenografts; experiment 230726): 1.714 and 1.239 and 2.528 and 1.801 and 0.8175 and 0.6878 and 1.986 and 0.813 and 0.7306 and 1.755
TAM (Hs578T xenografts; experiment 230726): 1.62 and 4.474 and 2.224 and 3.257 and 1.206 and 1.259
Tumor Size (Hs578T xenografts; experiment 230726): 0.8603 and 1.051 and 0.553 and 0.606 and 0.4686 and 0.6683 and 0.7425 and 0.3533 and 0.734 and 0.8296
tumour and plasma concentration after intratumoural injection [2]: its concentration in the tumour decreased rapidly past the 2-h timepoint, and substantial leakage into the plasma occurred
